The nature of the series: Solubility description. Format: physicochemical.

The structures appear in SMILES notation.

For `C[C@]12CCC(=O)C=C1[C@@H]1C[C@@H]1[C@H]1[C@@H]3[C@@H]4C[C@@H]4[C@@]4(CCC(=O)O4)[C@@]3(C)CC[C@@H]12` [Drospirenone], the Solubility entry (water) is given as “slight solubility”.
For the compound `C[C@]12CC[C@@H]3c4ccc(O)cc4CC[C@H]3[C@@H]1[C@@H](O)[C@@H](O)C2O` (stereo in doubt) [Estetrol monohydrate, estra-1,3,5(10)-triene-3,15α,16α,17α-tetrol monohydrate], the Solubility result is, setting by setting: (acetone) “sparingly soluble”; (ethyl acetate and acetonitrile) “slightly soluble”; (methanol, ethanol) “soluble”; (water and aqueous solutions) “poorly soluble”.

For the origin of these results see patent US20250152608A1, “CONTRACEPTIVE METHODS WITH IMPROVED PEARL INDEX” (ESTETRA SRL, priority 2022, published 2025).
